According to patent US20050277586A1, “Peptide chemically modified with polyethylene glycol” (priority 2002, published 2005):

Experiments:
[1] = Measurement of turbidity in BSA (absorbance at 600 nm); assay type: physicochemical; conditions: 1% BSA, peptide 50 μM
Procedure: The solutions were evaluated for their absorbance at a wavelength of 600 nm by using a spectrophotometer (DU640, manufactured by Beckman).

[2] = Measurement of CD spectrum with and without SDS; assay type: physicochemical; conditions: 10 mM phosphate buffer pH 7, 50 mM NaCl, 35° C.
Procedure: The peptide dissolved in 10 mM phosphate buffer (pH=7) containing 50 mM NaCl was evaluated for its CD spectrum in the presence and in the absence of 5 mM SDS by using a circular dichroism spectrophotometer (J-500A, manufactured by JASCO). The cell length was 1 mm. The measurement was conducted at 35° C. for 6 times in total.

[3] = test system: 21mer oligonucleotide; assay: Binding ability to oligonucleotide (gel electrophoresis); conditions: charge ratio (±ratio) of 10
Procedure: The 21mer oligonucleotide prepared by the procedure described in Example 6 (final concentration, 6.7 μM) and the peptide prepared by the procedure described in Examples 1 to 3 were mixed in 20 mM Tris-HCl buffer (pH=7.2) containing 150 mM NaCl at a charge ratio (±ratio) of 0 to 10, and the mixture was allowed to stand at 37° C. for 30 minutes. Next, 7.5 μL of this solution was mixed with an equal amount of Tris-borate buffer (pH=8.2) containing 80% formamide, and electrophoresis was conducted on 25% polyacrylamide gel containing 7M urea. After the electrophoresis, the gel was stained with 5% aqueous solution of Stains all (manufactured by Funakoshi) containing 50% formamide and washed with water to thereby determine the binding of the oligonucleotide and the peptide.
The ±ratio (charge ratio) indicated in FIG. 10 is the ratio of the number (+) of the positively-charged groups in the peptide to the number (−) of negatively-charged groups in the nucleic acid. As evident in FIG. 10, the amount of oligonucleotide that became bound to the peptide increased with the increase in the charge ratio (±ratio), and the oligonucleotide was fully bound to the peptide at a charge ratio (±ratio) of 10. The peptides of SEQ ID NO: 2 to SEQ ID NO: 24 were also found to bind at a charge ratio (±ratio) of 10.

[4] = test system: Vero cell, T24 cell, A549 cell; assay: Nucleic acid-introducing ability, luciferase-expressing plasmid (procedure of Example 9); assay type: cell-based
Source text: A cell line established from monkey kidney (Vero cell) and a human bladder cancer cell (T24 cell) purchased from American Type Culture Collection (ATCC) and human lung cancer cell (A549 cell) purchased from Dainippon Pharmaceutical were inoculated on a 24 well culture plate (manufactured by NALGEN NUNC) at 1×10^5 cells/well. Vero cell and A549 cell were cultivated in DMEM (manufactured by Life Technologies Oriental) supplemented with 10% fetal bovine serum (hereinafter referred to as FBS, manufactured by NICHIREI), and T24 cell was cultivated in McCoy's 5a (manufactured by Life Technologies Oriental) supplemented with 10% FBS in 5% CO2 atmosphere at 37° C. for 24 hours. After removing the medium, opti-MEM (manufactured by Life Technologies Oriental) prepared to have the concentration of the luciferase-expressing plasmid prepared in Example 7 of 1 μg/mL and the concentration of the peptide prepared in Example 1 of 1.25, 2.5, or 5 μM was added, and the cells were cultivated for 5 hours. Next, in the case of Vero cell and A549 cell, the culture medium was replaced with DMEM supplemented with 10% FBS, and in the case of T24 cell, the medium was replaced with McCoy's 5a supplemented with 10% FBS, and cultivation was continued in 5% CO2 atmosphere and at 37° C. for another 24 hours. The luciferase activity expressed in the cell was then measured by the method instructed in luciferase assay system (manufactured by Promega). To be more specific, the cells were washed with phosphate-buffered saline (hereinafter referred to as PBS, manufactured by SIGMA), and the cells were lyzed with Passive Lysis Buffer attached to the kit.
20 μL of this cell lysate and 100 μL of the Luciferase Assay Reagent II attached to the kit was added to a fluorescence-measuring plate (Microlite™ 1 plate, manufactured by Dynatech), and after mixing, fluorescence was measured for 1 second by using a multilabel counter (ARVO™ SY1420 MULTILABEL COUNTER, manufactured by Wallac Beltold.
Concentration of the protein in the cell lysate was measured by mixing 8 μL of the cell lysate and 200 μL of the protein assay solution (manufactured by Biorad) with 792 μL of ultrapure water in a disposable cuvette (UV fluorescent cuvette A204X, manufactured by Funakoshi), allowing the mixture to stand for 5 minutes at room temperature, and measuring the absorption at 595 nm with a spectrophotometer (DU640, manufactured by Beckman). Bovine serum albumin (BSA) was used for the standard protein. By using the thus obtained results, count per 1 second per 1 mg of protein of the cell lysate was calculated to thereby use the count as the luciferase activity, and the highest count in the three conditions of different peptide concentration was designated the gene-introducing ability of the peptide.

[5] = test system: A549 cell; assay: Luciferase-expressing plasmid introduction into A549 cell; assay type: cell-based, human
Source text: A cell line established from monkey kidney (Vero cell) and a human bladder cancer cell (T24 cell) purchased from American Type Culture Collection (ATCC) and human lung cancer cell (A549 cell) purchased from Dainippon Pharmaceutical were inoculated on a 24 well culture plate (manufactured by NALGEN NUNC) at 1×10^5 cells/well. Vero cell and A549 cell were cultivated in DMEM (manufactured by Life Technologies Oriental) supplemented with 10% fetal bovine serum (hereinafter referred to as FBS, manufactured by NICHIREI), and T24 cell was cultivated in McCoy's 5a (manufactured by Life Technologies Oriental) supplemented with 10% FBS in 5% CO2 atmosphere at 37° C. for 24 hours. […] The luciferase activity expressed in the cell was then measured by the method instructed in luciferase assay system (manufactured by Promega). […]
20 μL of this cell lysate and 100 μL of the Luciferase Assay Reagent II attached to the kit was added to a fluorescence-measuring plate (Microlite™ 1 plate, manufactured by Dynatech), and after mixing, fluorescence was measured for 1 second by using a multilabel counter (ARVO™ SY1420 MULTILABEL COUNTER, manufactured by Wallac Beltold. […]

Question: Which “OD 600” value [1] does the source give for “TRYLRIHPRSWVHQIALRLRYLRIHPRSWVHQIALRS [SEQ ID NO: 1]” here?
Answer: 0.03

Question: And the “α-helix structure in CD spectroscopy in the presence of SDS” value ([2]; 5 mM SDS)?
Answer: are in α-helix structure in the presence of SDS

Question: What about the “α-helix structure in CD spectroscopy in the absence of SDS” value ([2]; no SDS) of the same sequence?
Answer: do not take α-helix structure in an aqueous solution solely containing an inorganic salt

Question: What about the “Binding of oligonucleotide to the peptide” value [3] of the same sequence?
Answer: fully bound

Question: What about the Nucleic acid-introducing ability ([4]; luciferase plasmid 1 μg/mL, highest count of peptide 1.25, 2.5 or 5 μM, cell line not stated) of the same sequence?
Answer: 3+ (1,000,000 to less than 10,000,000)

Question: What about the “Ability of introducing the nucleic acid into a cell” value ([4]; procedure of Example 9) of the same sequence?
Answer: found to have the ability of introducing the nucleic acid into a cell

Question: What about the Luciferase activity [5] of the same sequence?
Answer: 8.7 × 10^4 cps/mg protein
